{"source": "paper PMC4501038", "about": "(RSC advances, 2015)", "key": {"anesthetized mice [1]": {"tested_on": "anesthetized mice", "test": "Cerebral blood flow", "assay_type": "in vivo", "conditions": "6c 3.9 mg/kg, % change from basal"}, "scopolamine-treated mice [2]": {"tested_on": "scopolamine-treated mice", "test": "Scopolamine-induced memory impairment, Morris water maze", "assay_type": "in vivo", "conditions": "for working memory: escape latencies trial 1 vs trial 2: each day for four days, 6c 3.9 mg/kg, scopolamine 1 mg/kg"}, "mice": {"tested_on": "mice", "test": "Functional observation battery", "conditions": "mouse, in vivo"}, "Swiss albino mice": {"tested_on": "Swiss albino mice", "test": "Reversal of pentobarbital-induced sleeping time", "assay_type": "in vivo", "conditions": "10 μmol/kg i.v."}, "anesthetized mice [3]": {"tested_on": "anesthetized mice", "test": "Cardiovascular parameters", "conditions": "noradrenaline, dose not given"}, "scopolamine-treated mice [4]": {"tested_on": "scopolamine-treated mice", "test": "Scopolamine-induced memory impairment, passive avoidance test", "assay_type": "in vivo", "conditions": "rivastigmine (positive control) plus scopolamine"}, "central TRH receptors": {"target": "central TRH receptors", "conditions": "read-out: Ki, binding to central TRH receptors; cited from earlier work"}, "TRH-DE": {"target": "TRH-DE", "conditions": "read-out: Ki, inhibition of TRH-DE; cited from earlier work"}, "rodents": {"tested_on": "rodents", "conditions": "cited from earlier work"}}, "note": "Where a name gives a salt, the structure may show the parent alone. Non-standard residues stand in square brackets, D forms with d. pGlu = O=C1CC[C@@H](C(=O)O)N1"}
{"compound": "NC(=O)[C@@H]1CCCN1C(=O)[C@H](Cc1cnc[nH]1)NC(=O)[C@@H]1CCC(=O)N1", "note": "[TRH, pGlu-His-ProNH2]", "values": [{"measurement": "increase in cerebral blood flow", "setting": "anesthetized mice [1]", "value": "93.4±2.9", "unit": "%"}, {"measurement": "working memory: escape latencies trial 1 vs trial 2", "setting": "scopolamine-treated mice [2]", "value": "significantly decrease in trial 2 compared to trial 1 on all four days"}, {"measurement": "FOB arousal", "setting": "mice", "value": "moderate arousal"}, {"measurement": "FOB gait and posture", "setting": "mice", "value": "normal till three hours"}, {"measurement": "FOB posture", "setting": "mice", "value": "normal posture"}, {"measurement": "FOB respiration", "setting": "mice", "value": "do not affect normal respiration"}, {"measurement": "FOB spontaneous activity in open field", "setting": "mice", "value": "do not increase spontaneous activity"}, {"measurement": "Sleeping duration (Mean± SEM)", "setting": "Swiss albino mice; pentobarbital 50 mg/kg i.p. 10 min later, mice", "value": "53.9 ± 3.7", "unit": "min"}, {"measurement": "(%) Reduction in time", "setting": "Swiss albino mice; relative to control, pentobarbital 50 mg/kg i.p.", "value": 42.5, "unit": "%"}]}
{"compound": "CN1[C@@H]2C[C@@H](OC(=O)[C@H](CO)c3ccccc3)C[C@H]1[C@@H]1O[C@@H]12", "note": "[scopolamine, scopolamine hydrobromide]", "values": [{"measurement": "area under curve of the escape latencies in four-day trial", "setting": "scopolamine-treated mice [2]; dose study, scopolamine (1 mg/kg i.p.) alone", "value": "337.5 ± 12.2", "unit": "s"}, {"measurement": "working memory: escape latencies trial 1 vs trial 2", "setting": "scopolamine-treated mice [2]", "value": "did not show any significant difference between two trials"}]}
{"compound": "NC[C@H](O)c1ccc(O)c(O)c1", "note": "[Noradrenaline]", "values": [{"measurement": "Δ Heart Rate", "setting": "anesthetized mice [3]", "value": "56.6±9", "unit": "BPM"}, {"measurement": "Δ MAP", "setting": "anesthetized mice [3]", "value": "42.8±2.2", "unit": "mm Hg"}, {"measurement": "Δ mean Diastolic BP", "setting": "anesthetized mice [3]", "value": "37.2±3.2", "unit": "mm Hg"}, {"measurement": "Δ mean Systolic BP", "setting": "anesthetized mice [3]", "value": "54.1±1.7", "unit": "mm Hg"}]}
{"compound": "CCN(C)C(=O)Oc1cccc([C@H](C)N(C)C)c1", "note": "[rivastigmine]", "values": [{"measurement": "working memory: escape latencies trial 1 vs trial 2", "setting": "scopolamine-treated mice [2]", "value": "significant effect on day 1, 2 and 3"}, {"measurement": "step through latency (retention)", "setting": "scopolamine-treated mice [4]", "value": "235.1 ± 27.6", "unit": "s"}]}
{"compound": "[pGlu]NP[dY][dW]-NH2", "values": [{"measurement": "Ki", "setting": "central TRH receptors", "value": 6.8, "unit": "nM"}, {"measurement": "Ki", "setting": "TRH-DE", "value": 151, "unit": "nM"}]}
{"compound": "[1-methyl-(S)-4,5-dihydroorotyl)]-L-His-L-ProNH2 [TAL]", "values": [{"measurement": "doses producing CNS effects, times lower than TRH", "setting": "rodents", "value": "about 100 times"}, {"measurement": "duration of antagonistic action on PB-induced sleep relative to TRH", "setting": "rodents", "value": "eight times longer"}]}
